This is an account of results in ChEMBL document CHEMBL1129551, “All-atom models for the non-nucleoside binding site of HIV-1 reverse transcriptase complexed with inhibitors: a 3D QSAR approach” (J Med Chem, 1996).

The target of the experiment is Human immunodeficiency virus type 1 reverse transcriptase (Human immunodeficiency virus 1, UniProt Q72547). As to the kind of experiment: Inhibitory activity against HIV-1 reverse transcriptase.
Consider `CCN1c2ncccc2-c2ncc(C)n2-c2c(C)cc(=O)[nH]c21`, for which the IC50 was determined as 12.2 µM.

In turn, `CCN1c2ncccc2-c2nccn2-c2ccc(N3CC=CCC3)nc21` had an IC50 of 3.9 µM.

As to `CCN1c2ncccc2-c2ncc(C)n2-c2ccc(N3CC=CCC3)nc21`, the 50% inhibitory concentration (IC50) came out at 2.7 µM.

`CCc1nc2n(c1C)-c1cccnc1N(CC)c1ncccc1-2` yielded an IC50 of 5.63 µM.
